Source: article PMC6882484, “Influence of verapamil on the pharmacokinetics of oridonin in rats” (Pharmaceutical Biology, 2019)
Like-named read-outs stand apart in the source and are kept apart here.

Key:
[1] = In vivo pharmacokinetic study of oridonin in rats with or without verapamil pre-treatment; details: Sprague-Dawley, rat, plasma, po, intragastrical oridonin (40 mg/kg; n = 6, mean ± SD); for CL/F: read-out: CLz/F (oral clearance) (converted)
Experimental: To evaluate the effects of verapamil on the pharmacokinetics of oridonin, the rats were divided into two groups of six animals each. The pre-treatment group was pre-treated with verapamil at a dose of 10 mg/kg/day (dissolved directly in normal saline containing 0.5% methylcellulose at a concentration of 2 mg/mL) for 7 days before the administration of oridonin. […] The dose of verapamil and oridonin were based on previous reports (Xu et al. [2006]; Zhu et al. [2017]; Huang et al. [2018]; Zhou et al. [2019]). The control group was without the pre-treatment of verapamil before the oral administration of oridonin. Blood samples (250 µL) were collected into heparinized tubes via the oculi chorioideae vein at 0.083, 0.33, 0.5, 1, 2, 4, 6, 8, 10, 12, 24 and 36 h after the oral administration of oridonin. The blood samples were centrifuged at 3500 rpm for 5 min. The plasma samples that were obtained were stored at −40 °C until analysis.
To 100 µL aliquot of a plasma sample, 20 µL methanol and 180 µL internal standard methanol solution (2 ng/mL) were added and vortexed for 60 s to mix in a 1.5 mL polypropylene tube, and were centrifuged at 12,000 rpm for 10 min. The supernatant was removed into an injection vial, and a 3 µL aliquot was injected into the LC-MS/MS system for analysis.
The determination of oridonin was performed on Agilent 1290 series liquid chromatography system and an Agilent 6470 triple-quadruple mass spectrometer (Palo Alto, CA, USA). The HPLC/MS conditions and sample preparation were basically according to a validated HPLC method described before (Jin et al. [2015]; Zhang et al. [2019]). The chromatographic analysis of oridonin was performed on a Waters X-Bridge C18 column (3.0 × 100 mm, i.d.; 3.5 µm, USA) at room temperature (25 °C). The mobile phase was water (containing 0.1% formic acid) and acetonitrile (30:70, v:v) with isocratic elution at a flow rate of 0.2 mL/min, and the analysis time was 4 min.
The mass scan mode was positive MRM mode. The precursor ion and product ion are m/z 365.3→347.3 for oridonin and m/z 252.1→155.9 for IS. The collision energy for oridonin and IS were 30 and 20 eV, respectively. The MS/MS conditions were optimized as follows: fragmentor, 110 V; capillary voltage, 3.5 kV; nozzle voltage, 500 V; nebulizer gas pressure (N2), 40 psig; drying gas flow (N2), 10 L/min; gas temperature, 350 °C; sheath gas temperature, 400 °C; sheath gas flow, 11 L/min.
The pharmacokinetic parameters, including the area under the plasma concentration-time curve (AUC), maximal plasma concentration (Cmax), the time for the maximal plasma concentration (Tmax), and the mean residence time (MRT) were calculated using the DAS 3.0 pharmacokinetic software (Chinese Pharmacological Association, Anhui, China).

[2] = Bidirectional transport across Caco-2 cell transwell model; format: in vitro ADME; details: human, Caco-2, oridonin 2 µM; for Papp B→A at 2 µM: basolateral to apical
Experimental: (§1) The Caco-2 cell line was obtained from the American Type Culture Collection (Manassas, VA, USA), and it was performed according to the previous study (Liu et al. [2018]). The Caco-2 cells were cultured in DMEM high glucose medium containing 15% FBS, 1% NEAA and 100 U/mL penicillin and 100 µg/mL streptomycin. The cells were cultured at 37 °C with 5% CO2. For transport studies, the cells at passage 40 were seeded on transwell polycarbonate insert filters (1.12 cm^2 surface, 0.4 µm pore size, 12 mm diameter; Corning Costar Corporation, MA, USA) in 12-well plates at a density of 1 × 10^5 cells/cm^2. Cells were allowed to grow for 21 days. For the first seven days, the medium was replaced every two days, and then daily. The transepithelial electrical resistance (TEER) of the monolayer cells was measured using Millicell ERS-2 (Millipore Corporation, Billerica, MA, USA), and TEER exceeding 400 Ω·cm^2 was used for the flux experiment. The integrity of the Caco-2 monolayers was confirmed by the paracellular flux of Lucifer yellow, which was less than 1% per hour. The alkaline phosphatase activity was validated using an Alkaline Phosphatase Assay Kit. The qualified monolayers were used for transport studies. Before the transport experiments, the cell monolayers were rinsed twice using warm (37 °C) HBSS, then the cells were incubated at 37 °C for 20 min. After preincubation, the cell monolayers were incubated with oridonin in fresh incubation medium added on either the apical or basolateral side for the indicated times at 37 °C. […] The permeability of oridonin (2 µM) in all of the above condition s for both directions, i.e., from the apical (AP) side to the basolateral (BL) side and from the BL side to the AP side, was measured after incubation for 30, 60, 90 and 120 min at 37 °C. In addition, the efflux activity of P-gp was validated using a typical P-gp substrate digoxin (25 µM). The apparent permeability coefficient (Papp) was calculated using the equation of Artursson and Karlsson: Papp=(ΔQ/Δt)×[1/(A×C0)] where Papp is the apparent permeability coefficient (cm/s), ΔQ/Δt (µmol/s) is the rate at which the compound appears in the receiver chamber, C0 (µmol/L) is the initial concentration of the compound in the donor chamber and A (cm^2) represents the surface area of the cell monolayer. Data were collected from three separate experiments, and each was performed in triplicate. In addition, the efflux activity of P-gp was validated using a typical P-gp substrate digoxin (25 µM).

[3] = Metabolic stability in rat liver microsomes; format: in vitro ADME; details: for microsomal CLint at 1 µM: read-out: intrinsic clearance rate; for half-life at 1 µM: read-out: metabolic half-life (t1/2)
Experimental: Rat liver microsomes were used to investigate the effects of verapamil on the metabolism clearance of oridonin, and the assay conditions and reaction mixtures were similar to those reported previously (Wang et al. [2017]; Yan et al. [2017]). In brief, 30 µL rat liver microsome (20 mg/mL), 12 µL oridonin solution (100 µM) and 1113 µL PBS buffer (0.1 M, pH 7.4) were added to the centrifuge tubes on ice. There was a 5 min preincubation step at 37 °C before initiating the reaction by adding NADPH-generating system (45 µL) into the microsomal suspension. The effects of verapamil or ketoconazole (a positive CYP3A4 inhibitor) on the metabolic stability of oridonin were investigated by adding 10 µM of verapamil or ketoconazole (12 µL, final concentration of 0.1 µM) to rat liver microsomes and preincubating them for 30 min at 37 °C, followed by the addition of NADPH-generating system. Aliquots of 100 µL were collected from the reaction volumes at 0.083, 0.167, 0.33, 0.5, 1, 2, 4, 8, 12, 24 and 36 h after the addition of oridonin, and 200 µL ice-cold acetonitrile containing esculin was added to terminate the reaction. All the experiments were performed in triplicate. The subsequent sample preparation method was same as the method of plasma sample preparation, and the concentration of oridonin was determined by LC-MS.
The in vitro half-life (t1/2) was obtained using the equation: t1/2=0.693/k; V (µL/mg)=volume of incubation (µL)/protein in the incubation (mg); Intrinsic clearance (Clint) (µL/min/mg protein)=V × 0.693/t1/2.

[4] = set-up: method as in Xu et al. [2006]; details: oral administration in rats; ref Xu et al. [2006]; cited from earlier work
[5] = test system: Caco-2 cell monolayers; experiment: Bidirectional transport across Caco-2 cell transwell model; format: in vitro ADME; details: Caco-2, digoxin 25 µM, verapamil present
Experimental: as §1

[6] = test system: P-gp; experiment: as above; format: in vitro ADME; details: human; Caco-2, digoxin 25 µM, P-gp substrate validation, without verapamil
Experimental: as §1

[7] = pre-treatment of verapamil (10 mg/kg/day for 7 days)
[8] = with verapamil (concentration not stated), verapamil present

C=C1C(=O)[C@]23[C@H](O)[C@H]1CC[C@H]2[C@@]12CO[C@]3(O)[C@@H](O)[C@@H]1C(C)(C)CC[C@@H]2O [oridonin]
Cmax ([1]; 40 mg/kg, control without verapamil): 147 ± 10.2 ng/mL
AUC(0-t) ([1]; control without verapamil): 1310 ± 290 ng·h/mL
MRT ([1]; control without verapamil): 9.25 ± 1.1 h
Tmax ([1]; control without verapamil): 1 ± 0.12 h
half-life ([1]; control without verapamil): 10.9 ± 4.38 h
CL/F ([1]; control without verapamil): 245 mL/min/kg
AUC(0-t) [1, 7]: 2230 ± 530 ng·h/mL
Cmax [1, 7]: 194 ± 10.5 ng/mL
MRT [1, 7]: 11.5 ± 1.5 h
Tmax [1, 7]: 1 ± 0.18 h
half-life [1, 7]: 13.7 ± 4.81 h
CL/F [1, 7]: 135 mL/min/kg
efflux ratio at 2 µM ([2]; pH 7.4, without verapamil): 1.67
Papp B→A at 2 µM [2, 8]: 0.222 ± 0.032 ×10⁻⁶ cm/s
efflux ratio at 2 µM [2, 8]: 1.15
Papp A→B at 2 µM ([2]; apical to basolateral, HBSS pH 7.4, 37 °C, without verapamil): 0.191 ± 0.015 ×10⁻⁶ cm/s
Papp B→A at 2 µM ([2]; HBSS pH 7.4, 37 °C, without verapamil): 0.32 ± 0.016 ×10⁻⁶ cm/s
microsomal CLint at 1 µM ([3]; pH 7.4, oridonin alone): 40.1 ± 2.5 µL/min/mg
half-life at 1 µM ([3]; pH 7.4, oridonin alone): 0.577 ± 0.045 h
half-life at 1 µM ([3]; pH 7.4, with verapamil 0.1 µM, in the presence of verapamil): 0.64 ± 0.055 h
microsomal CLint at 1 µM ([3]; pH 7.4, with verapamil 0.1 µM, verapamil present): 36.1 ± 3.7 µL/min/mg
bioavailability (available after oral administration) [4]: 11%

C[C@H]1O[C@@H](O[C@H]2[C@@H](O)C[C@H](O[C@H]3[C@@H](O)C[C@H](O[C@H]4CC[C@@]5(C)[C@H](CC[C@@H]6[C@@H]5C[C@@H](O)[C@]5(C)[C@@H](C7=CC(=O)OC7)CC[C@]65O)C4)O[C@@H]3C)O[C@@H]2C)C[C@H](O)[C@@H]1O [digoxin]
efflux ratio [5]: abrogated
efflux ratio at 25 µM [6]: 10.1
